Data from PMC12470154, “In Vitro Evaluation of Antimicrobial Amyloidogenic Peptides for the Treatment of Early and Mature Bacterial Biofilms” (International Journal of Molecular Sciences, 2025).

Tests used:
S. aureus (129B strain) [1] = assay: Mature biofilms, MTT assay; type: cell-based, Staphylococcus aureus; settings: mature biofilm
Method: (§1) After 24 h of incubation, the medium was removed. To assess the total biofilm biomass, the wells were rinsed with sterile PBS solution and stained with 0.1% crystal violet. The dye bound to the surface was then removed using 95% ethanol. To assess the presence of metabolically active cells, 0.3% MTT (PanEco Ltd., Moscow, Russia) solution was added to each well, and the plates were incubated at 37 °C for 2 h. After incubation, the MTT solution was removed, 150 µL of DMSO (Chimmed, Moscow, Russia) and 25 µL of glycine buffer were added to each well, and the plates were left at room temperature for 15 min. The resulting solutions were transferred to a flat-bottom 96-well plate, and optical density was measured at 595 nm.
(§2) A stationary-phase culture of the tested strain was diluted 100-fold in fresh medium (200 µL per well) and added to the wells of a 96-well round-bottom plate. […] After another 24 h, the medium was removed and the wells were rinsed with sterile PBS to eliminate planktonic cells. The procedures for assessing total biofilm biomass and cell metabolic activity using crystal violet and MTT assays were performed in the same manner as described above for early-stage biofilm experiments.

S. aureus (129B strain) [2] = assay: Mature biofilms, MTT assay; type: cell-based, Staphylococcus aureus; set-up: key: ↓: Decrease in the parameter (optical density) compared to the negative control; −: No decrease in the parameter; ↑: Reverse effect (increase in the optical density compared to the control); settings: mature biofilm: peptide added after 24 h, further 24 h; 0.01-10 mg/mL
Method: as §1, §2

MRSA (SA 180-F strain) [3] = assay: Early biofilm formation, crystal violet staining; type: cell-based, methicillin-resistant Staphylococcus aureus; set-up: key: ↓: Decrease in the parameter (optical density) compared to the negative control; −: No decrease in the optical density; ↑: Reverse effect (increase in the optical density compared to the control); settings: peptide present from inoculation, 24 h, OD 595 nm
Method: as §1

S. aureus (129B strain) [4] = assay: Mature biofilms, crystal violet staining; type: cell-based, Staphylococcus aureus; set-up: key: ↓: Decrease in the parameter (optical density) compared to the negative control; −: No decrease in the optical density; ↑: Reverse effect (increase in the optical density compared to the control); settings: mature biofilm: peptide added after 24 h, further 24 h; 0.01-10 mg/mL
Method: as §1, §2

MRSA (SA 180-F strain) [5] = assay: Mature biofilms, MTT assay; type: cell-based, methicillin-resistant Staphylococcus aureus; set-up: key: ↓: Decrease in the parameter (optical density) compared to the negative control; −: No decrease in the optical density; ↑: Reverse effect (increase in the optical density compared to the control); settings: mature biofilm: peptide added after 24 h, further 24 h; 0.01-10 mg/mL
Method: as §1, §2

[6] = system: P. aeruginosa (2943 strain); assay: Early biofilm formation, MTT assay; type: cell-based, Pseudomonas aeruginosa; settings: for bacterial metabolic activity (MTT): 10 mg/mL; for concentration given with ↓ (MTT): 24 h
Method: as §1

Sequence: ITDFGIFIGLGGGGSRQIKIWFQNRRMKWKK [I31K^P]
- metabolic activity of cells within mature biofilms (MTT) (S. aureus (129B strain) [1]; 0.01, 0.1, 1, and 10 mg/mL): decreased the metabolic activity
- concentration given with ↓ (MTT) (S. aureus (129B strain) [1]): 0.01 mg/mL
- change of optical density after MTT assay vs negative control (S. aureus (129B strain) [2]): ↓ (0.01 mg/mL)
- change of optical density after crystal violet staining vs negative control (MRSA (SA 180-F strain) [3]): −

Sequence: RKKRRQRRRGGGGVTDFGVFVEI [R23I^T, TAT cell-penetrating peptide linked via glycine linker to amyloidogenic fragment of S1 ribosomal protein of T. thermophilus]
- change of optical density after crystal violet staining vs negative control (MRSA (SA 180-F strain) [3]): −
- change of optical density after crystal violet staining vs negative control (S. aureus (129B strain) [4]): −
- change of optical density after MTT assay vs negative control (MRSA (SA 180-F strain) [5]): −

Sequence: RKKRRQRRRGGGGVVVHINGGKFGGGGSRQIKIWFQNRRMKWKK [R44K^S]
- bacterial metabolic activity (MTT) [6]: reduced bacterial metabolic activity
- concentration given with ↓ (MTT) [6]: 10 mg/mL

Sequence: VTDFGVFVEIGGGGSRQIKIWFQNRRMKWKK [V31K^T, amyloidogenic fragment of S1 of T. thermophilus linked via glycine-rich linker to antennapedia peptide]
- bacterial metabolic activity (MTT) [6]: reduced bacterial metabolic activity
- concentration given with ↓ (MTT) [6]: 10 mg/mL
